Experimental data taken from patent US20110229450A1, “ENZYMES AND METHODS FOR DEGRADING S-TRIAZINES AND DIAZINES” (Commonwealth Scientific and industrial Research Organisation, priority 2008, published 2011).
Substitutions are numbered along the chain they refer to. Names and notes keep the numbering of the source. Where two headings read alike, the source gives them in different places.

Experiments:
TrzN cc3.2 = experiment: Substrate range: hydrolysis of triazines by purified TrzN cc3.2 (loss of absorbance at 264 nm); format: biochemical; details: for Hydrolysis by TrzN cc3.2: purified enzyme; for Relative Activity in TrzN cc3.2: specific activity at 100 μM substrate and 41 nM TrzN cc3.2, ametryn = 1
TrzN = details: from Shapir et al. (2006); ametryn = 1; cited from earlier work
[1] = read-out: Kd for zinc; cited from earlier work
Apo-TrzNcc3.2 = experiment: Saturation of Apo-TrzNcc3.2 with Zn^2+; format: binding
[2] = read-out: Km for atrazine; cited from earlier work
[3] = Atrazine clearing plate assay, low-level constitutive vector pCS150 in three E. coli strains; format: cell-based; details: E. coli JM109, DH10β and BL21 λDE3, 37° C.
Experimental: Random and site-saturated libraries were screened using LB agar plates supplemented with 200 μg.mL^−1 ampicillin, 1 μM IPTG and impregnated with 1 mg.mL^−1 atrazine (90% atrazine w/w; Gesaprim 900 WG, Syngenta). […] The level of activity was determined by the rate at which the clarification occurred.
The entire coding region for both TrzNcc3.2 and wild-type TrzN were moved from the inducible, high-level expression vector pETcc2 into a low-level, constitutive expression vector (pCS150, Scott et al., 2009). The resultant vectors were used to transform E. coli JM109, DH10β, and BL21 λDE3 cells. The six resultant strains were tested for their rates of clearing using the atrazine clearing plate assay.

[4] = format: cell-based, E. coli strain BL21 λDE3; details: for Time to clear: 1% atrazine (w/v), 1 mM IPTG LB agar plates, 37° C., BL21 λDE3 pETcc2; for atrazine dechlorinase activity / clearing rate after substitution, compared with wild-type or parental gene: site-saturation and random mutagenesis
[5] = from 5 litres; Shapir et al. (2005); cited from earlier work

CC(C)Nc1nc(Cl)nc(NC(C)C)n1 [Propazine, 6-chloro-N,N′-bis(1-methylethyl)-1,3,5-triazine-2,4-diamine]
Hydrolysis by TrzN cc3.2 (TrzN cc3.2): able to hydrolyse | Relative Activity in TrzN cc3.2 (TrzN cc3.2): 0.86

CCNc1nc(Cl)nc(NC(C)C)n1 [Atrazine, 6-chloro-N-ethyl-N′-(1-methylethyl)-1,3,5-triazine-2,4-diamine]
Relative Activity in TrzN* (TrzN): 0.16 | Hydrolysis by TrzN cc3.2 (TrzN cc3.2): able to hydrolyse | Relative Activity in TrzN cc3.2 (TrzN cc3.2): 1.36

CCNc1nc(NC(C)C)nc(SC)n1 [Ametryn, N2-ethyl-N4-isopropyl-6-methylthio-1,3,5-triazine-2,4-diamine]
Relative Activity in TrzN* (TrzN): 1 | Hydrolysis by TrzN cc3.2 (TrzN cc3.2): able to hydrolyse | Relative Activity in TrzN cc3.2 (TrzN cc3.2): 1

CCNc1nc(Cl)nc(N(CC)CC)n1 [Trietazine, 6-chloro-N,N,N′-triethyl-1,3,5-triazine-2,4-diamine]
Hydrolysis by TrzN cc3.2 (TrzN cc3.2): able to hydrolyse | Relative Activity in TrzN cc3.2 (TrzN cc3.2): 0.04

CCN(CC)c1nc(Cl)nc(NC(C)C)n1 [Ipazine, 6-chloro-N,N-diethyl-N′-(1-methylethyl)-1,3,5-triazine-2,4-diamine]
Hydrolysis by TrzN cc3.2 (TrzN cc3.2): able to hydrolyse | Relative Activity in TrzN cc3.2 (TrzN cc3.2): 0.07

CCNc1nc(Cl)nc(NC(C)(C)C#N)n1 [Cyanozine, 2-[[4-chloro-6-(ethyamino)-1,3,5-triazin-2-yl]amino]-2-methylpropanenitrile]
Hydrolysis by TrzN cc3.2 (TrzN cc3.2): able to hydrolyse | Relative Activity in TrzN cc3.2 (TrzN cc3.2): 0.43

CSc1nc(NC(C)C)nc(NC(C)C)n1 [Prometryn, N2,N4-diisopropyl-6-methylthio-1,3,5-triazine-2,4-diamine]
Hydrolysis by TrzN cc3.2 (TrzN cc3.2): able to hydrolyse | Relative Activity in TrzN cc3.2 (TrzN cc3.2): 1

superoxide dismutase
Kd [1]: 0.01 nM

CCNc1nc(Cl)nc(NCC)n1 [Simazine, 6-chloro-N,N″-diethyl-1,3,5-triazine-2,4-diamine]
Relative Activity in TrzN* (TrzN): 0.41 | Hydrolysis by TrzN cc3.2 (TrzN cc3.2): able to hydrolyse | Relative Activity in TrzN cc3.2 (TrzN cc3.2): 1.36

CCNc1nc(NCC)nc(SC)n1 [Simetryn, N2,N4-diethyl-6-methylthio-1,3,5-triazine-2,4-diamine]
Relative Activity in TrzN* (TrzN): 0.14 | Hydrolysis by TrzN cc3.2 (TrzN cc3.2): able to hydrolyse | Relative Activity in TrzN cc3.2 (TrzN cc3.2): 0.57

[Zn+2] [Zn^2+]
EC50 (Apo-TrzNcc3.2; read-out: ZnCl2 concentration at which half maximal activity was recovered): 2600 nM | Kd (Apo-TrzNcc3.2; read-out: dissociation constant for Zn^2+): 2600 nM

B1: TrzN Wildtype: Wild-type TrzN triazine hydrolase, SEQ ID NO:1; codon optimised open reading frame TrzNco, SEQ ID NO:2 (protein, listed as Arthrobacter aurescens)
chain: MILIRGLTRVITFDDQERELEDADILIDGPKIVAVGKDLSDRSVSRTIDGRGMIALPGLINSHQHLYEGAMRAIPQLERVTMASWLEGVLTRSAGWWRDGKFGPDVIREVARAVLLESLLGGITTVADQHLFFPGATADSYIDATIEAATDLGIRFHAARSSMTLGKSEGGFCDDLFVEPVDRVVQHCLGLIDQYHEPEPFGMVRIALGPCGVPYDKPELFEAFAQMAADYDVRLHTHFYEPLDAGMSDHLYGMTPWRFLEKHGWASDRVWLAHAVVPPREEIPEFADAGVAIAHLIAPDLRLGWGLAPIREYLDAGITVGFGTTGSASNDGGNLLGDLRLAALAHRPADPNEPEKWLSARELLRMATRGSAECLGRPDLGVLEEGRAADIACWRLDGVDRVGVHDPAIGLIMTGLSDRASLVVVNGQVLVENERPVLADLERIVANTTALIPKNL
Km [2]: 20 µM | Time to clear [3]: > 12 days | Time to clear [4]: None | Time to clear ([4]; listed as trzNco): > 30 days | yield of partial purification [5]: 2.8 mg

B2: S161G (protein)
chain: B1 chain with S161G
atrazine dechlorinase activity / clearing rate after substitution, compared with wild-type or parental gene [4]: improved activities

B3: D38N (protein)
chain: B1 chain with D38N
clearing phenotype ([4]; D38X site saturation library in a L131P A159V background): apparently improved clearing phenotypes

B4: L335M (protein)
chain: B1 chain with L335M
atrazine dechlorinase activity / clearing rate after substitution, compared with wild-type or parental gene [4]: improved activities

B5: T91S (protein)
chain: B1 chain with T91S
atrazine dechlorinase activity / clearing rate after substitution, compared with wild-type or parental gene [4]: improved activities

B6: P210A (protein)
chain: B1 chain with P210A
atrazine dechlorinase activity / clearing rate after substitution, compared with wild-type or parental gene [4]: improved activities
